Results published in patent US7964723B2, “And practical process for exclusively producing (S)-9-fluoro-3-methyl-10-(4-methyl-1-piperazinyl)-7-oxo-2,3-dihydro-7H-pyrido-[1,2,3,de][1,4]benzoxazine-6-carboxylic acid hemihydrate” (Apeloa-Kangyu, priority 2008, dated 2011).
Like-named read-outs stand apart in the source and are kept apart here.

Assays:
[1] = loss of crystal water on drying; format: physicochemical; details: 50° C. under vacuum of around 60 mm/Hg for a couple of hours; theoretical water 2.43%
From the text: Levofloxacin hemihydrate contains a theoretical amount of water of 2.43%.

[2] = hemihydrate compared with monohydrate; cited from earlier work
[3] = cited from earlier work
[4] = system: gram-positive and gram-negative bacteria; details: cited from earlier work

SMILES	water lost by drying [1]	phase stability as a drug substance [2]	drying temperature at which crystal water is lost (anhydrous form results) ([3]; under atmospheric pressure)	drying temperature at which crystal water is lost (anhydrous form results) ([3]; under reduced pressure)	potency in inhibiting the multiplication of bacteria relative to its (+)-enantiomer ([4]; gram-positive and gram-negative bacteria, versus (+)-enantiomer)	activity relative to its racemate, ofloxacine ([4]; versus racemate)
C[C@H]1COc2c(N3CCN(C)CC3)c(F)cc3c(=O)c(C(=O)O)cn1c23 [Levofloxacin hemihydrate, (−)-(S)-9-fluoro-3-methyl-10-(4-methyl-1-piperazinyl)-7-oxo-2,3-dihydro-7H-pyrido-[1,2,3-de] [1,4] benzoxazine-6-carboxylic acid hemihydrate]	0.20-0.30%	superior to the monohydrate	around 70 °C	around 60 °C	–	–
C[C@H]1COc2c(N3CCN(C)CC3)c(F)cc3c(=O)c(C(=O)O)cn1c23 [Levofloxacin, (S)-9-fluoro-3-methyl-10-(4-methyl-1-piperazinyl)-7-oxo-2,3-dihydro-7H-pyrido-[1,2,3-de][1,4]benzoxazine-6-carboxylic acid]	–	–	–	–	8-128 times	approximately 2 times
